Measurements reported in PubChem BioAssay AID248 (DTP/NCI, 2004).
Values joined by “and” are separate entries in the source; they are usually repeats but may differ in a detail not shown here. Identical values can stand only once. Toxic doses and inconclusive results are not listed. No stated cut-off is given here; in the data, active means T/C of 150% or more; inactive means T/C below 125%.

Test system: L1210 leukemia ip in BDF1 mice, survival T/C
Test: NCI In Vivo Anticancer Drug Screen. Data for tumor model L1210 Leukemia (intraperitoneal) in B6D2F1 (BDF1) mice
Conditions: endpoint: mean survival time, higher = longer survival
Method in brief: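 Each compound was tested against a transplantable tumor grown in mice. The endpoint was survival, with treated animals benchmarked against vehicle controls as a simple ratio.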

[1] = dose: 100.0 mg/kg/injection, schedule: Q04DX002 (ip), vehicle: saline with Tween-80
[2] = dose: 200.0 mg/kg/injection, schedule: Q04DX002 (ip), vehicle: saline with Tween-80
[3] = dose: 400.0 mg/kg/injection, schedule: Q04DX002 (ip), vehicle: saline with Tween-80
[4] = dose: 100.0 mg/kg/injection, schedule: Q04DX003 (ip), vehicle: saline with Tween-80
[5] = dose: 200.0 mg/kg/injection, schedule: Q04DX003 (ip), vehicle: saline with Tween-80
[6] = dose: 100.0 mg/kg/injection, schedule: Q01DX001 (ip), vehicle: saline
[7] = dose: 200.0 mg/kg/injection, schedule: Q01DX001 (ip), vehicle: saline
[8] = dose: 400.0 mg/kg/injection, schedule: Q01DX001 (ip), vehicle: saline
[9] = dose: 50.0 mg/kg/injection, schedule: Q01DX009 (ip), vehicle: saline with Tween-80
[10] = dose: 100.0 mg/kg/injection, schedule: Q01DX009 (ip), vehicle: saline with Tween-80
[11] = dose: 50.0 mg/kg/injection, schedule: Q01DX001 (ip), vehicle: carboxymethylcellulose (CMC)
[12] = dose: 100.0 mg/kg/injection, schedule: Q01DX009 (ip), vehicle: Klucel (hydroxypropylcellulose) (HPC)
[13] = dose: 100.0 mg/kg/injection, schedule: Q04DX003 (ip), vehicle: Klucel (hydroxypropylcellulose) (HPC)
[14] = dose: 200.0 mg/kg/injection, schedule: Q01DX001 (ip), vehicle: carboxymethylcellulose (CMC)
[15] = dose: 200.0 mg/kg/injection, schedule: Q04DX003 (ip), vehicle: Klucel (hydroxypropylcellulose) (HPC)
[16] = dose: 400.0 mg/kg/injection, schedule: Q01DX001 (ip), vehicle: carboxymethylcellulose (CMC)
[17] = dose: 400.0 mg/kg/injection, schedule: Q01DX009 (ip), vehicle: Klucel (hydroxypropylcellulose) (HPC)
[18] = dose: 400.0 mg/kg/injection, schedule: Q04DX003 (ip), vehicle: Klucel (hydroxypropylcellulose) (HPC)
[19] = dose: 200.0 mg/kg/injection, schedule: Q01DX009 (ip), vehicle: Klucel (hydroxypropylcellulose) (HPC)
[20] = dose: 400.0 mg/kg/injection, schedule: Q04DX003 (ip), vehicle: saline with Tween-80

Measured: T/C

OCC1OC(n2ccc3c([Se])ncnc32)C(O)C1O (stereo not given)
inactive: dose: 12.5 mg/kg/injection, schedule: Q01DX005 (ip), vehicle: saline 119 % of control | dose: 25.0 mg/kg/injection, schedule: Q01DX005 (ip), vehicle: saline 122 % of control | dose: 50.0 mg/kg/injection, schedule: Q01DX005 (ip), vehicle: saline 115 % of control | dose: 100.0 mg/kg/injection, schedule: Q01DX005 (ip), vehicle: saline 122 % of control

CCC(=O)/C=C/c1ccccc1OC
inactive: [1] 97 % of control | [2] 105 % of control | [3] 105 % of control

CN(C)CCC1(CCN(C)C)C(=O)CCc2ccccc21
inactive: dose: 100.0 mg/kg/injection, schedule: Q01DX001 (ip), vehicle: other 97 % of control | dose: 200.0 mg/kg/injection, schedule: Q01DX001 (ip), vehicle: other 103 % of control | dose: 400.0 mg/kg/injection, schedule: Q01DX001 (ip), vehicle: other 103 % of control

O=C1C2C(c3cc4ccccc4n31)N2c1ccccc1 (stereo not given)
inactive: dose: 0.75 mg/kg/injection, schedule: Q01DX001 (ip), vehicle: water 103 % of control | dose: 1.5 mg/kg/injection, schedule: Q01DX001 (ip), vehicle: water 103 % of control | dose: 3.0 mg/kg/injection, schedule: Q01DX001 (ip), vehicle: water 100 % of control | dose: 6.0 mg/kg/injection, schedule: Q01DX001 (ip), vehicle: water 106 % of control | dose: 12.0 mg/kg/injection, schedule: Q01DX001 (ip), vehicle: water 91 % of control | dose: 24.0 mg/kg/injection, schedule: Q01DX001 (ip), vehicle: water 106 % of control

COc1cc(-c2nc(/C=C3\C(=O)C=Cc4ccccc43)c(O)o2)cc(OC)c1OC
inactive: [1] 93 % of control | [2] 86 % of control | [3] 93 % of control

CC(=O)N1CCC(Cc2ccccc2)CC1
inactive: dose: 75.0 mg/kg/injection, schedule: Q01DX009 (ip), vehicle: saline with Tween-80 104 % of control

NC(=S)c1ccc2ccc3cccnc3c2n1
inactive: dose: 50.0 mg/kg/injection, schedule: Q04DX003 (ip), vehicle: saline with Tween-80 95 % of control | [4] 104 % of control | [5] 106 % of control

CC1CCCC1=O (stereo not given)
inactive: dose: 50.0 mg/kg/injection, schedule: Q01DX001 (ip), vehicle: saline 96 % of control | [6] 93 % of control | [7] 93 % of control | [8] 93 % of control

NCCc1cnc[nH]1
inactive: dose: 50.0 mg/kg/injection, schedule: Q01DX009 (ip), vehicle: saline 89 % of control | dose: 100.0 mg/kg/injection, schedule: Q01DX009 (ip), vehicle: saline 106 % of control | dose: 200.0 mg/kg/injection, schedule: Q01DX009 (ip), vehicle: saline 89 % of control

COc1ccc([N+](=O)[O-])cc1NS(=O)(=O)c1ccc(Cl)c([N+](=O)[O-])c1
inactive: [9] 95 % of control and 90 % of control | dose: 50.0 mg/kg/injection, schedule: Q04DX003 (ip), vehicle: other 97 % of control | dose: 100.0 mg/kg/injection, schedule: Q01DX009 (ip), vehicle: other 105 % of control | [10] 93 % of control and 106 % of control | dose: 100.0 mg/kg/injection, schedule: Q04DX002 (ip), vehicle: other 107 % of control and 113 % of control | dose: 100.0 mg/kg/injection, schedule: Q04DX003 (ip), vehicle: other 96 % of control | dose: 200.0 mg/kg/injection, schedule: Q01DX009 (ip), vehicle: saline with Tween-80 95 % of control | dose: 200.0 mg/kg/injection, schedule: Q04DX002 (ip), vehicle: other 96 % of control and 102 % of control | dose: 200.0 mg/kg/injection, schedule: Q04DX003 (ip), vehicle: other 89 % of control | dose: 400.0 mg/kg/injection, schedule: Q01DX009 (ip), vehicle: other 87 % of control | dose: 400.0 mg/kg/injection, schedule: Q01DX009 (ip), vehicle: saline with Tween-80 95 % of control | dose: 400.0 mg/kg/injection, schedule: Q04DX002 (ip), vehicle: other 101 % of control and 102 % of control

O=C1OC(c2ccco2)=N/C1=C\c1ccc(Cl)c(Cl)c1
inactive: [1] 108 % of control | [2] 105 % of control | [3] 108 % of control

CCOc1ccccc1NC1=C(OC)C(=O)C(Nc2ccccc2OCC)=C(OC)C1=O
inactive: [11] 97 % of control | dose: 100.0 mg/kg/injection, schedule: Q01DX001 (ip), vehicle: carboxymethylcellulose (CMC) 103 % of control | [12] 95 % of control | [13] 98 % of control | [14] 101 % of control | [15] 90 % of control | [16] 113 % of control | [17] 90 % of control | [18] 101 % of control

O=C1CC(c2ccccc2)=NCCN1
inactive: [12] 97 % of control | [19] 95 % of control | [17] 114 % of control

O=C(O)CCC(=O)Nc1cc(C(F)(F)F)ccc1Cl
inactive: dose: 100.0 mg/kg/injection, schedule: Q04DX002 (ip), vehicle: saline 102 % of control | dose: 200.0 mg/kg/injection, schedule: Q04DX002 (ip), vehicle: saline 97 % of control | dose: 400.0 mg/kg/injection, schedule: Q04DX002 (ip), vehicle: saline 108 % of control

CC(=O)C(C(=O)NCc1ccccc1)C(c1ccc2c(c1)OCO2)C(C(C)=O)C(=O)NCc1ccccc1 (stereo not given)
inactive: [6] 98 % of control | [7] 96 % of control | [8] 97 % of control

CC(C)(C)N1OC2(CCCCC2)n2c(=O)c3ccccc3c(=O)n2C1c1ccccc1 (stereo not given)
inactive: [1] 97 % of control | [2] 90 % of control | [3] 108 % of control

CC(C)CCCCCOC(N)=O
inactive: [12] 96 % of control | [19] 103 % of control | [17] 102 % of control

O=C1CCC23/C=C/C(=O)NCCCCNCCCNC(=O)/C=C/c4ccc(c2c4)OC3C1 (stereo not given)
inactive: dose: 100.0 mg/kg/injection, schedule: Q01DX001 (ip), vehicle: saline with Tween-80 101 % of control | dose: 200.0 mg/kg/injection, schedule: Q01DX001 (ip), vehicle: saline with Tween-80 95 % of control | dose: 400.0 mg/kg/injection, schedule: Q01DX001 (ip), vehicle: saline with Tween-80 91 % of control

O=S1(=O)/C(=C\C2CCCCC2)c2c1c(-c1ccccc1)c1ccccc1c2-c1ccccc1
inactive: [11] 86 % of control | [14] 92 % of control | [16] 89 % of control

CN(NC(=O)c1ccccc1)c1ccccc1
inactive: [4] 96 % of control | [5] 107 % of control | [20] 105 % of control

OCCNC1c2ccccc2-c2ccccc21
inactive: dose: 50.0 mg/kg/injection, schedule: Q01DX009 (ip), vehicle: Klucel (hydroxypropylcellulose) (HPC) 100 % of control | [12] 118 % of control | [13] 102 % of control | [19] 99 % of control | [15] 107 % of control

O=C(Nc1cccc(F)c1)SCc1ccccc1
inactive: dose: 100.0 mg/kg/injection, schedule: Q01DX009 (ip), vehicle: gum acacia 90 % of control | dose: 200.0 mg/kg/injection, schedule: Q01DX009 (ip), vehicle: gum acacia 90 % of control | dose: 400.0 mg/kg/injection, schedule: Q01DX009 (ip), vehicle: gum acacia 98 % of control

N#CC(c1ccccc1)c1ccc(F)cc1 (stereo not given)
inactive: [12] 104 % of control | [13] 100 % of control | [19] 97 % of control | [15] 96 % of control | [17] 98 % of control | [18] 98 % of control

COC1=CC2C3=CC(C)C4C(=O)OC(=O)C4C3C1C1C(=O)OC(=O)C21 (stereo not given)
inactive: [9] 105 % of control | [10] 94 % of control

c1coc(CNCNCc2ccco2)c1
inactive: dose: 155.0 mg/kg/injection, schedule: Q01DX Z (ip), vehicle: methylcellulose (MC) 94 % of control | dose: 233.0 mg/kg/injection, schedule: Q01DX Z (ip), vehicle: methylcellulose (MC) 105 % of control | dose: 350.0 mg/kg/injection, schedule: Q01DX Z (ip), vehicle: methylcellulose (MC) 100 % of control

CC1(c2ccccc2O)Nc2ccccc2S1 (stereo not given)
inactive: [4] 92 % of control | [5] 92 % of control | [20] 96 % of control
